Patent publication US12716889B2, “Microfluidic-based device for in vivo wound infection model and uses thereof” (The Hong Kong Polytechnic University, priority 2021, dated 2026)

Test system: P. aeruginosa (PAO1) biofilm
Test: Viable cell counts (CFU) from biofilm on infected tail wound of Medaka fish in the MicroFish device
Type: in vivo, Pseudomonas aeruginosa
Conditions: ciprofloxacin monotherapy at 0, 0.05, 1, 5, 10 μg ml^−1 added to fish-microbe co-cultures; FIG. 5E
Method: After harvesting the tails from euthanized animals after bacterial infection, the tissues were resuspended in 100 μl sterilized 0.9% (w/v) NaCl saline and ground manually by pellet pestle in 1.5-ml-microcentrifuge tubes (JET BIOFIL, China) until homogenization. The homogenized samples were diluted serially in 0.9% NaCl and then spread on centrimide agar (selective only for Pseudomonad growth) (Sigma-Aldrich, Germany). After incubation at 37° C. for 16 hrs, the colonies grown on the plates were enumerated. The CFU ml^−1 was tabulated by colony number×dilution factor[…]. Experiments were performed in triplicates, and the results are shown as mean±S.D.

With `O=C(O)c1cn(C2CC2)c2cc(N3CCNCC3)c(F)cc2c1=O` [ciprofloxacin] the “biofilm viability (viable cell counts, CFU)” value was “lower biofilm viability”.
